Where two headings read alike, the source gives them in different places.
What was measured:
AChE = molecular target: T1, AChE (Electrophorus electricus, UniProt O42275); test: biochemical; format: biochemical; conditions: for IC50: electric eel AChE, Ellman's method, SEM of three experiments; for Selectivity for AChE: ratio of IC50 values, BuChE over AChE; for fold stronger AChE inhibition than the standard neostigmine: relative to neostigmine
T1 construct: electric eel, and horse serum were used as source of AChE and BuChE, respectively; from tissue; host or cells: electric eel
T1 sequence (O42275 24-633): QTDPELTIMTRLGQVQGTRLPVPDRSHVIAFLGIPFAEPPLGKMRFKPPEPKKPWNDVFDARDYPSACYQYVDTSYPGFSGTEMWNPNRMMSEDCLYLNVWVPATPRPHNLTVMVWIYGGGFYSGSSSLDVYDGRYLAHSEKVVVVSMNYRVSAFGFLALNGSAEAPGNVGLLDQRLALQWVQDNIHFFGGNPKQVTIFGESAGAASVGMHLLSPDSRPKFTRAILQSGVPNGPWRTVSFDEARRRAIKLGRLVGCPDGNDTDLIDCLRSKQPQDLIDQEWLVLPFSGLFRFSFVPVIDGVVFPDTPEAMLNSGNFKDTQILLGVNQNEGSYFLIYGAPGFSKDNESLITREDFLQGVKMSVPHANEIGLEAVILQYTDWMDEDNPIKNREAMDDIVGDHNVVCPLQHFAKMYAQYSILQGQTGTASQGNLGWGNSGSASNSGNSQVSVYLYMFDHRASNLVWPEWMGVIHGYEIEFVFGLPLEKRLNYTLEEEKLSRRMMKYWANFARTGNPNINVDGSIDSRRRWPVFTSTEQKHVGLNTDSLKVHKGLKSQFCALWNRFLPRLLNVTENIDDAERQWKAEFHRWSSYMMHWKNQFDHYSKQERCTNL
Experimental: (§1) The target compounds, coumarinyl thiazoles 6(a–o) and coumarinyl oxadiazoles 11(a–h), were screened for their inhibitory activity against AChE and BuChE by Ellman's method.
(§2) For the determination of cholinesterase inhibition, electric eel, and horse serum were used as source of AChE and BuChE, respectively. […] The compounds with 1 Mm concentration were prepared in DMSO. Assay was carried out in 96 well-plate in triplicates. The reaction mixture comprised of 20 μL of buffer (tris HCl 50 mM, 0.02 M MgCl2.6H2O, 0.1 mM NaCl) at pH 8, 10 μL of the test compound, 10 μL enzyme acetylcholine or butyrylcholinesterase of 0.03 U/mL (500 U of AChE and 700 U/mg of BuChE). The contents were incubated for 10 min at 25°C followed by the addition of 1 mM of 10 μL of substrate […] for AChE and butyrylthiocholine iodide for BuChE and incubated again at 25°C for 15 min. A 50 μL of 3 mM DTNB as a coloring agent was added and incubated at 25°C for further 10 min. […] The enzyme dilutions were made by using buffer of pH 8 (tris base 50 mM and having 0.1% BSA).

BuChE = molecular target: T2, BuChE (Equus caballus, UniProt P81908); test: biochemical; format: biochemical; conditions: for Selectivity for BuChE: ratio of IC50 values, AChE over BuChE
T2 construct: electric eel, and horse serum were used as source of AChE and BuChE, respectively; from tissue; host or cells: horse serum
T2 sequence (P81908 whole entry): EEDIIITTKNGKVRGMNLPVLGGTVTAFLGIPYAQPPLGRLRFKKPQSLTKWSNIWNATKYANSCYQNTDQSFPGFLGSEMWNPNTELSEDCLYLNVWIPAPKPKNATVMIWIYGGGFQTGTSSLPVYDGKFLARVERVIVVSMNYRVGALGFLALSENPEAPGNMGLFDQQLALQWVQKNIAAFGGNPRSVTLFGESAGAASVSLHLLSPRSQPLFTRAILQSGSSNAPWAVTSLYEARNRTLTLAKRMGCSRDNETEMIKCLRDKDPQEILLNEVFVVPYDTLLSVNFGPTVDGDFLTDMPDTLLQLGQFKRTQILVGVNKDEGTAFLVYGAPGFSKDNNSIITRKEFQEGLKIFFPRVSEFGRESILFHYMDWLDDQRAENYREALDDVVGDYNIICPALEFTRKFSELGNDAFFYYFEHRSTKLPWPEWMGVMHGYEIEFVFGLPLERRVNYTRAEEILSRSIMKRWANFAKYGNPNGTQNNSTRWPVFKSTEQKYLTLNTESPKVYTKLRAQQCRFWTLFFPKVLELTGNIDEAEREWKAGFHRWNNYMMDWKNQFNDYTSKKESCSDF
Experimental: as §1, §2

[1] = horse serum BuChE, Ellman's method, SEM of three experiments, read-out: BuChE IC50 (μM) ± SEM

| SMILES | IC50 (AChE) [µM] | Selectivity for AChE (AChE) | IC50 (BuChE; [1]) [µM] | Selectivity for BuChE (BuChE) | fold stronger AChE inhibition than the standard neostigmine (AChE) | BuChE inhibition, in words (BuChE) | fold more potent against BuChE than neostigmine (BuChE; relative to neostigmine) | AChE inhibition, in words (AChE) | IC50 (BuChE) [µM] |
| --- | --- | --- | --- | --- | --- | --- | --- | --- | --- |
| C/C(=N\Nc1nc(-c2cc3ccccc3oc2=O)cs1)c1ccccc1 [Compound 6a] | 16.9 ± 0.32 | 1.93 | 32.7 ± 2.08 | 0.51 |  |  |  |  |  |
| CC(=NNc1nc(-c2cc3ccccc3oc2=O)cs1)c1cccc(N)c1 [Compound 6b] | 0.87 ± 0.09 | 35.8 | 31.22 ± 0.17 | 0.027 | ~ 32 fold |  |  |  |  |
| C/C(=N\Nc1nc(-c2cc3ccccc3oc2=O)cs1)c1ccccc1Br [Compound 6c] | 21.2 ± 0.23 | 0.91 | 19.3 ± 1.42 | 1.09 |  |  |  |  |  |
| C/C(=N\Nc1nc(-c2cc3ccccc3oc2=O)cs1)c1cccc(Br)c1 [Compound 6d] | 30.1 ± 1.73 | 0.50 | 15.2 ± 0.53 | 1.98 |  | moderate inhibitors |  |  |  |
| C/C(=N\Nc1nc(-c2cc3ccccc3oc2=O)cs1)c1ccc(Br)cc1 [Compound 6e] | 33.42 ± 0.18 | 1.47 | 49.12 ± 0.12 | 0.68 |  |  |  |  |  |
| C/C(=N\Nc1nc(-c2cc3ccccc3oc2=O)cs1)c1ccccc1F [Compound 6f] | 23.1 ± 0.32 | 1.39 | 32.1 ± 1.21 | 0.71 |  |  |  |  |  |
| C/C(=N\Nc1nc(-c2cc3ccccc3oc2=O)cs1)c1ccc(F)cc1 [Compound 6g] | 36.34 ± 0.18 | 0.77 | 28.01 ± 0.21 | 1.29 |  |  |  |  |  |
| COc1ccc(C(C)=NNc2nc(-c3cc4ccccc4oc3=O)cs2)cc1 [Compound 6h] | 1.08 ± 0.84 | 17.8 | 19.32 ± 0.11 | 0.055 | 26 fold | moderate inhibitors |  |  |  |
| COc1ccc(/C(C)=N/Nc2nc(-c3cc4ccccc4oc3=O)cs2)cc1F [Compound 6i] | 2.34 ± 1.43 | 9.44 | 22.1 ± 1.08 | 0.105 |  |  |  |  |  |
| COc1ccc(/C(C)=N/Nc2nc(-c3cc4ccccc4oc3=O)cs2)c(O)c1 [Compound 6j] | 9.05 ± 0.23 | 1.22 | 11 ± 3.37 | 0.81 |  |  |  |  |  |
| COc1cc(C(C)=NNc2nc(-c3cc4ccccc4oc3=O)cs2)ccc1O [Compound 6k] | 5.86 ± 0.15 | 3.29 | 19.1 ± 1.32 | 0.303 |  |  |  |  |  |
| COc1ccc(/C(C)=N/Nc2nc(-c3cc4ccccc4oc3=O)cs2)cc1I [Compound 6l] | 13.8 ± 1.58 | 2.32 | 32.1 ± 1.08 | 0.42 |  |  |  |  |  |
| C/C(=N\Nc1nc(-c2cc3ccccc3oc2=O)cs1)c1ccc(Cl)cc1N [Compound 6m] | 22.74 ± 0.16 | 1.63 | 37.2 ± 0.55 | 0.61 |  |  |  |  |  |
| O=c1oc2ccccc2cc1-c1csc(NN=C(c2ccccc2)c2ccccc2)n1 [Compound 6n] | 11.2 ± 0.17 | 1.94 | 21.6 ± 3.09 | 0.51 |  |  |  |  |  |
| C/C(=N\Nc1nc(-c2cc3ccccc3oc2=O)cs1)c1cc2ccccc2oc1=O [Compound 6o] | 10.1 ± 1.12 | 2.28 | 23.2 ± 0.29 | 0.43 |  |  |  |  |  |
| CNCn1nc(-c2cc3ccccc3oc2=O)oc1=S [Compound 11a] | 6.07 ± 0.23 | 0.056 | 0.341 ± 0.06 | 17.8 |  |  |  |  |  |
| CCCCNCn1nc(-c2cc3ccccc3oc2=O)oc1=S [Compound 11b] | 9.41 ± 0.55 | 0.081 | 0.77 ± 0.08 | 12.2 |  |  |  |  |  |
| Cc1ccc(NCn2nc(-c3cc4ccccc4oc3=O)oc2=S)cc1 [Compound 11c] | 23.8 ± 0.94 | 0.33 | 8.01 ± 3.58 | 2.97 |  |  |  |  |  |
| O=c1oc2ccccc2cc1-c1nn(CNc2ccccc2Cl)c(=S)o1 [Compound 11d] | 16.6 ± 2.72 | 0.20 | 3.48 ± 1.58 | 4.77 |  |  |  |  |  |
| O=c1oc2ccccc2cc1-c1nn(CNc2cccc(Cl)c2)c(=S)o1 [Compound 11e] | 12.4 ± 0.08 | 0.012 | 0.15 ± 0.09 | 82.6 |  |  | about 107 fold |  |  |
| O=c1oc2ccccc2cc1-c1nn(CNc2ccc(Cl)cc2)c(=S)o1 [Compound 11f] | 18.6 ± 0.32 | 0.65 | 12.1 ± 1.08 | 1.53 |  |  |  |  |  |
| O=c1oc2ccccc2cc1-c1nn(CN(c2ccccc2)c2ccccc2)c(=S)o1 [Compound 11g] | 9.57 ± 1.42 | 0.47 | 4.54 ± 0.54 | 2.10 |  |  |  | moderate inhibitors |  |
| O=c1oc2ccccc2cc1-c1nn(CN2CCOCC2)c(=S)o1 [Compound 11h] | 12.2 ± 1.67 | 1.09 | 13.5 ± 0.41 | 0.91 |  |  |  | moderate inhibitors |  |
| CN(C)C(=O)Oc1cccc([N+](C)(C)C)c1 [Neostigmine, reference compound] | 28.2 ± 2.01 | 0.57 |  | 1.75 |  |  |  |  | 16.1 ± 1.13 |

From PMC5879128, “Combined in Vitro and in Silico Studies for the Anticholinesterase Activity and Pharmacokinetics of Coumarinyl Thiazoles and Oxadiazoles” (Frontiers in Chemistry, 2018)
